In patent US20100292306A1, “Compositions And Methods For The Treatment Of Muscular Dystrophy” (priority 2005, published 2010):
“Also recorded” adds a separate entry of the source.

Experiments:
[1] = tested on: mdx triangularis sterni (TS) muscle; experiment: Percent fibers and percent striated fibers in photographed areas of fixed mdx TS muscle; format: in vivo, mdx mice
Protocol: To evaluate the effect of various chemical agents on animal models of MD, experimental male and female mdx mice may be injected intraperitoneally (ip) with various chemicals at different dosage. In the case of pyrrolidine dithiocarbamate (PDTC) (50-75 mg/kg of PDTC (obtained from Sigma) may be dissolved in a saline solution (HEPES-Ringer; in mM: 147.5 NaCl, 5 KCl, 2 CaCl2, 11 glucose, 5 HEPES, pH 7.35) for injection. […] The mice may be sacrificed after 1-24 months from the beginning of treatment to determine the effect of the treatment with the chemicals.
In one embodiment, the treatment effect may be evaluated by comparing the morphological results between 3 regions of the triangularis sterni (TS); the caudal third of the muscle extending toward the xiphoid process, the middle third, and the cephalad third of the muscle. This procedure is adopted because there are obvious differences between these regions in the extent of pathology and the muscle thickness in the mdx TS (not clearly seen in the nondystrophic TS) even when examining the muscle at low power (e.g., 4×). Results from animals that die during the experimental time frame (both saline injected and PDTC treated) are typically excluded from the study.
Morphological assessment of total fiber density and density of striated fibers may be conducted as described in the following text. Immediately after completing the resting potential measurements, the minimally stretched TS muscle preparations attached to the dissecting hooks may be fixed overnight in 2% glutaraldehyde (0.1 M cacodylate buffer) and subsequently washed several times in 0.1 M cacodylate. Before removing the preparation from the recording chamber, microphotographs of approximately 24 randomly sampled areas may be obtained at 200-300× magnification in caudal, middle, and cephalad regions of the TS. In the initial studies, a smaller number of photographs may be obtained over the middle portion of the TS muscle.
Each preparation may be illuminated using bright-field optics to minimize depth of focus issues in visualizing muscle fiber striations. Since the mdx TS muscle is a flat and thin preparation, all the fibers in each area are roughly within the same focal plane. However, small variations in depth of focus may produce small variations in the appearance of striated fibers. Such effects may be minimized by routinely adjusting the plane of focus to maximize the number of striated fibers in each photographed area. The density of muscle fibers and the density of striated fibers may then be evaluated for each sampled area by drawing a line orthogonal to the principal axis of the TS muscle fibers across the entire viewing area of each photograph. The percentage of the length of this line that covered muscle fibers and the percentage of this line that covered striated muscle fibers (defined as having striations over at least 50% of the observed length) may be used to determine the percentage of muscle fibers and striated muscle fibers, respectively, for each photographed muscle area. Control experiments using these procedures on adult nondystrophic TS muscles (N=37 areas, 2 TS muscles at 19 and 27 months) may yield average values of 99.1±0.5 (SE) percent fibers and 96.7±1.2 percent striated fibers with no regional differences across the caudal, middle, and cephalad thirds of the muscle (FIG. 3).
In freshly isolated preparations of mdx TS muscle, hypercontraction and myofibrillar disorganization are expressed as a decrease in the appearance of striated muscle fibers (See e.g., FIG. 2A) and fiber loss and fibrosis appear as a decrease in the number of fibers in individual areas of the TS (See e.g., FIG. 2B; cf. Carlson et al., 2003 and Cullen and Fulthorpe, 1975). […]

[2] = tested on: mdx triangularis sterni (TS) muscle; experiment: Histological cross sections of mdx TS muscle (fiber number, diameter, density, myonuclei, centronucleation); format: in vivo, mdx mice
Description: To further examine the morphological effects of chronic treatment with inhibitors of the NFκB pathway, the fixed TS preparations used in these investigations on mature mdx mice (Series 2 through 4) were sectioned and stained with hematoxylin and eosin using standard histological procedures (FIG. 7A, 7B, 7C). […] PDTC treatment produced a significant (p<0.001) reduction in diameter in the caudal region and a significant (p<0.001) increase in diameter in the middle region in comparison to corresponding values from the vehicle-injected mdx mice (FIG. 9).
To determine the density of muscle fibers in the mdx TS muscle, individual sections representing all of the fibers within each TS muscle were evaluated by determining the average number of fiber cross sections per unit length of the TS muscle where the length is defined along the axis orthogonal to the principal fiber axis. This procedure was performed for all of the available TS muscles initially used in the Series 2 and 3 PDTC investigations.
Determination of the total number of myonuclei across all regions of the mature nondystrophic, mdx-vehicle, and mdx-PDTC treated TS muscles in conjunction with determination of the total number of fiber cross sections in the same preparations provided an immediate measure of the number of myonuclei per sectioned fiber (FIG. 12).
These morphological results provide direct evidence that inhibitors of the NFκB pathway may have beneficial effects in treating both young and mature dystrophic preparations.

nuclear NF-κB activation = conditions: long term treatment; Messina et al. (2006); cited from earlier work
[3] = Series 2 and 3, vs age-matched vehicle
[4] = mature mdx, vs vehicle-injected, p<0.001

SMILES: S=C(S)N1CCCC1 [PDTC, pyrrolidine dithiocarbamate]
- density of fibers in the TS ([1]; 50 mg/kg ip 48-76 days, Series 2 (11.5-18.5 months) and Series 3 (21.5-22 months)): increases
- increase in the percentage of striated muscle fibers ([1]; Series 1, vs untreated, P<0.01): 3 fold
- striated fibers in photographed area ([1]; Series 1: 50-75 mg/kg ip daily 27-30 days, 8.5-9 months at sacrifice, middle region, FIG. 2C): approximately 82%
- average percent fibers ([1]; Series 1: 50-75 mg/kg ip daily 27-30 days, same in untreated): about 80%
- density of striated fibers ([1]; Series 1: 50-75 mg/kg ip, 27-30 days, 8.5-9 months at sacrifice): increases
- increase in the percent of fibers ([1]; Series 2: 50 mg/kg daily, 11.5-18.5 months at sacrifice, middle third, P<0.01 vs saline): 1.7 fold
- overall percent of fibers across all regions ([1]; Series 2, P<0.05 vs saline): significant increase
- increased percent of striated fibers ([1]; Series 2, middle region, P<0.01 vs saline): 8.4 fold
- increase in the percent of striated fibers ([1]; Series 3 (22 months), caudal, middle and overall total of sampled areas): 22- to 68 fold
- increases in the density of muscle fibers ([1]; Series 3: aged mdx mice (22 months), 50 mg/kg daily, across all regions, P<0.01 or P<0.001): 4.1- to 11.1 fold
- overall percent fibers ([1]; Series 4: individual mdx mouse, 50 mg/kg on 238 of 258 days, 13.5 months of age, N=25): 82.2±2.6%
- overall percent striated fibers ([1]; Series 4: individual mdx mouse, 50 mg/kg on 238 of 258 days, 13.5 months of age, N=25 areas): 40.4±2.6%
- effect of treatment on the percent of striated fibers ([1]; Series 4: longer administration beginning in 5 month mdx mice, middle and cephalad regions, P<0.001): significant effect
- density of striated TS fibers ([1]; daily PDTC, Series 2 and Series 3): increases
- fiber number, caudal region [2, 3]: substantial increases
- fiber number, cephalad region [2, 3]: an increase
- fiber number, middle region [2, 3]: no change
- number of fibers per unit length ([2]; Series 2 and 3, cephalad and caudal regions, p<0.05): increased
- number of myonuclei per fiber ([2]; Series 2 and 3 mature mdx, vs age matched vehicle, p<0.001): increase
- fiber number or density, middle region ([2]; chronic PDTC, mature mdx): without altering
- density of fibers / loss of muscle fibers ([2]; individual mdx mouse, 50 mg/kg on 238 of 258 days from 5 to 13.5 months, vs 14.6 month vehicle treated, 50 mg/kg): substantial improvements; also recorded: decreases the loss
- percent centronucleation ([2]; mature mdx mice, Series 2 and 3, p<0.001): reduced; also recorded: significantly decreased
- fiber diameter, caudal region [2, 4]: reduction
- fiber diameter, middle region [2, 4]: increase
- nuclear NF-κB activation in mdx quadriceps (nuclear NF-κB activation): effectively reduced
